Target: T1, human A934T SLACK (Homo sapiens, UniProt Q5JUK3, A915T)
T1 construct: host or cells: CHO-K1
T1 sequence (Q5JUK3 1-1235 isoform Q5JUK3-3 A934T): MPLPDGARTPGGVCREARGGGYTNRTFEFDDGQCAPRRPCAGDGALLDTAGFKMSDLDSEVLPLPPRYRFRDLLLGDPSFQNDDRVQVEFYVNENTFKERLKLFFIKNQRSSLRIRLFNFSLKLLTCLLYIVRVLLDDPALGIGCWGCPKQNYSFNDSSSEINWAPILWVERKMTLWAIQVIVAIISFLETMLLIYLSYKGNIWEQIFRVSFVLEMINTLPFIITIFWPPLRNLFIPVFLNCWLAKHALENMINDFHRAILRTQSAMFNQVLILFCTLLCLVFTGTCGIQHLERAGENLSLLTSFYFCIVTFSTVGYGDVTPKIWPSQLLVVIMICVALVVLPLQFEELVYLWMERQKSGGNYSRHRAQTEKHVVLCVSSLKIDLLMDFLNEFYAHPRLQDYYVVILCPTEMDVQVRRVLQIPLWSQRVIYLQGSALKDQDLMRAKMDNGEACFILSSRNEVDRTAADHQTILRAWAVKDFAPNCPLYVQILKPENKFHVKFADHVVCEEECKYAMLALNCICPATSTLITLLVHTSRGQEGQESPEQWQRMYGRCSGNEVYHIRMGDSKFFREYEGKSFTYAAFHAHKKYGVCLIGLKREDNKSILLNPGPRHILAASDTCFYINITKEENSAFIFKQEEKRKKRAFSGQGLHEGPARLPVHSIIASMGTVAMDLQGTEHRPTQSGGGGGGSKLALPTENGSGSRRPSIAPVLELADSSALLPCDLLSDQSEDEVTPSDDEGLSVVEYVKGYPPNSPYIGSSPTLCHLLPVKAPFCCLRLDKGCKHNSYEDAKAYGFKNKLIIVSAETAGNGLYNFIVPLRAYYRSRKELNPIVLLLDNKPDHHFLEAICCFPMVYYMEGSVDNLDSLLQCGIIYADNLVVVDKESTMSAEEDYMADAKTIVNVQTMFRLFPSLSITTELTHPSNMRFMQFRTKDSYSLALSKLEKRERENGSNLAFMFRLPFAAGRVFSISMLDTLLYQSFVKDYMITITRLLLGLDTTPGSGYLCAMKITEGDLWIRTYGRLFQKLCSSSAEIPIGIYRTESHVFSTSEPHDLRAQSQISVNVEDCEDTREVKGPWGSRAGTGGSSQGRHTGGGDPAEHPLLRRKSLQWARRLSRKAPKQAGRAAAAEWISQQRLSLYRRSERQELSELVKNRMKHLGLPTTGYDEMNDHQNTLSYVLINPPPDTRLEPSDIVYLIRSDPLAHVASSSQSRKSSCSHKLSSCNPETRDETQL
Experiment: Whole-cell APC in CHO cells stably expressing human A934T SLACK
Type: cell-based
Conditions: for IC50: APC, CHO cells; for Imax: maximum inhibition at 30 µM standardized to VU0606170 (100%)
Excerpt: Development of a useful SLACK inhibitor in vivo tool will require potent activity at the corresponding mouse ortholog as studies in appropriate mouse models will be critical. Thus, we evaluated analogs 32 and 48 in our APC assay using CHO cells stably expressing mouse WT SLACK (Table 6). […] We were also eager to evaluate the same compounds with regard to their ability to inhibit clinically relevant GOF SLACK mutants. Both the C-terminus A934T mutant and transmembrane G288S mutant have been associated with clinical cases of EIMFS [3, 7].
Stably transfected monoclonal HEK293 cell lines expressing Slick, Maxi-K α1/β3, Maxi-K α1/β4, CaV3.2, GIRK 1/2, KV2.1, KV7.2, NaV1.7, and TASK-1 were generated as previously described. Stably transfected monoclonal HEK293 cell lines expressing hERG were generated as previously described. CHO-K1 cells expressing human Slack and disease-associated human Slack mutations, G288S and A934T, were generated by transfecting a PiggyBac TRE mammalian expression vector (VectorBuilder, Chicago, IL, USA) containing KCNT1. FuGENE 6 (Promega, Madison, WI, USA) transfection reagent and protocol, together with Opti-MEM (Thermo Fisher Scientific, Walkham, MA, USA), were utilized.
Automated patch-clamp recording was performed with a SyncroPatch 768 PE system (Nanion, Munich, Germany) as previously described. Whole-cell recordings were performed at room temperature. Cells were harvested by first washing with PBS without Mg^2+ or Ca^2+ (Gibco, Billings, MT, USA) to remove cell culture media, followed by dissociation with TryPLE (Gibco, Billings, MT, USA). Cells were then resuspended and diluted to 100,000 cells/mL in external solution. External solution contained 105 mM NaCl, 4 mM KCl, 1 mM MgCl2, 5 mM CaCl2, 10 mM HEPES, and 40 mM N-Methyl-D-glucamine chloride, titrated to pH of 7.4 and osmolarity of 300 mOsm/kg; internal solution contained 70 mM NaCl, 70 mM KF, 10 mM KCl, 5 mM EGTA, and 5 mM HEPES, titrated to a pH of 7.2 and osmolarity of 295 mOsm/kg.
The APC protocol was set as follows: Cells were held at a […] of −80 mV for 100 ms, then a ramp protocol was performed from −100 mV to 80 mV at 0.4 mV/ms, followed by holding the cell at −80 mV for another 100 ms, then steps were performed at −20 mV, 0 mV, +20 mV, +40 mV, and +60 mV for 100 ms of each step. Whole-cell currents were measured at 0 mV and normalized to current after external buffer addition. […] To obtain the concentration-response relationship graphs and IC50 values, we take the median value of the last 7 current amplitude values obtained for each set of data points collected for a given concentration at a particular step.

CCCCN(Cc1cccc(F)c1)c1nc2c(c(=O)n(Cc3cccc(OC)c3)c(=O)n2C)n1C [Analog 78]
IC50: 350 nM

CN(Cc1cccc(F)c1)c1nc2c(c(=O)n(Cc3ccccc3)c(=O)n2C)n1C [Analog 48]
IC50: 820 nM | Imax: 100%

CCCCN(Cc1ccc(F)cc1)c1nc2c(c(=O)n(Cc3cccc(OC)c3)c(=O)n2C)n1C [Analog 80]
IC50: 590 nM

COc1cccc(Cn2c(=O)c3c(nc(N(C)Cc4ccccc4)n3C)n(C)c2=O)c1 [Analog 32]
IC50: 780 nM | Imax: 99%

COc1cccc(Cn2c(=O)c3c(nc(N(Cc4cccc(F)c4)CC4CC4)n3C)n(C)c2=O)c1 [Analog 79]
IC50: 1000 nM

COc1cccc(Cn2c(=O)c3c(nc(N(Cc4ccc(F)cc4)CC4CC4)n3C)n(C)c2=O)c1 [Analog 81]
IC50: 1200 nM
